Measured values as given in US20160039767A1, “PYRAZOLE DERIVATIVES AS PRMT1 INHIBITORS AND USES THEREOF” (EPIZYME, INC., priority 2013, published 2016).
Like-named read-outs stand apart in the source and are kept apart here.

How the values were obtained:
PRMT1 = molecular target: T1, PRMT1 (Homo sapiens, UniProt Q99873); test: PRMT1 Biochemical Assay (3H-SAM Flashplate, histone H4 peptide substrate); details: Biochemical IC50 (Numerical, μM) PRMT1, single experiment or average of multiple experiments, Table 2a
T1 construct: GST-tagged PRMT1; made in house; host or cells: High Five insect cells (baculovirus, pFastBacI)
Source text: S-adenosylmethionine (SAM), S-adenosylhomocysteine (SAH), bicine, Tween20, dimethylsulfoxide (DMSO), bovine skin gelatin (BSG), and Tris(2-carboxyethyl)phosphine hydrochloride solution (TCEP) were purchased from Sigma-Aldrich at the highest level of purity possible. ^3H-SAM was purchase from American Radiolabeled Chemicals with a specific activity of 80 Ci/mmol. 384-well streptavidin Flashplates were purchased from PerkinElmer.
Recombinant baculovirus were generated according to Bac-to-Bac kit instructions (Life Technologies). Protein over-expression was accomplished by infecting exponentially growing High Five insect cell culture at 1.5×10^6 cell/ml with 1:100 ratio of virus. Infections were carried out at 27° C. for 48 hours, harvested by centrifugation, and stored at −80° C. for purification.
GST-tagged PRMT1 was eluted with 50 mM Tris, 2 mM glutathione, pH 7.8, dialysed in buffer A and concentrated to 1 mg/mL.
General Procedure for PRMT1 Enzyme Assays on Peptide Substrates.
The assays were all performed in a buffer consisting of 20 mM Bicine (pH=7.6), 1 mM TCEP, 0.005% BSG, and 0.002% Tween 20, prepared on the day of use. […] DMSO (1 ul) was added to Columns 11, 12, 23, 24, rows A-H for the maximum signal control and 1 ul of SAH, a known product and inhibitor of PRMT1, was added to columns 11, 12, 23, 24, rows I-P for the minimum signal control. A cocktail (40 ul) containing the PRMT1 enzyme was added by Multidrop Combi (Thermo-Fisher). The compounds were allowed to incubate with PRMT1 for 30 min at room temperature, then a cocktail (10 ul) containing SAM and peptide was added to initiate the reaction (final volume=51 ul). […] The assays were stopped by the addition of non-radiolabeled SAM (10 ul) to a final concentration of 300 uM, which dilutes the ^3H-SAM to a level where its incorporation into the peptide substrate is no longer detectable. […] The plates were then read in a PerkinElmer TopCount plate reader to measure the quantity of ^3H-labeled peptide bound to the Flashplate surface, measured as disintegrations per minute (dpm) or alternatively, referred to as counts per minute (cpm).
Where dpm=disintegrations per minute, cmpd=signal in assay well, and min and max are the respective minimum and maximum signal controls.
Where top and bottom are the normally allowed to float, but may be fixed at 100 or 0 respectively in a 3-parameter fit. The Hill Coefficient normally allowed to float but may also be fixed at 1 in a 3-parameter fit. Y is the % inhibition and X is the compound concentration.

RKO cells = test: RKO Methylation Assay (In Cell Western for mono-methyl arginine and DNA content); type: cell-based; details: Homo sapiens
Source text: RKO adherent cells were purchased from ATCC (American Type Culture Collection), Manassas, Va., USA. DMEM/Glutamax medium, penicillin-streptomycin, heat inactivated fetal bovine serum, 0.05% trypsin and D-PBS were purchased from Life Technologies, Grand Island, N.Y., USA. Odyssey blocking buffer, 800CW goat anti-rabbit IgG (H+L) antibody, and Licor Odyssey infrared scanner were purchased from Licor Biosciences, Lincoln, Nebr., USA. Mono-methyl arginine antibody was purchased from Cell Signaling Technology, Danvers, Mass., USA. Methanol was purchased from VWR, Franklin, Mass., USA. 10% Tween 20 was purchased from KPL, Inc., Gaithersburg, Md., USA. DRAQ5 was purchased from Biostatus Limited, Leicestershire, UK.
RKO adherent cells were maintained in growth medium (DMEM/Glutamax medium supplemented with 10% v/v heat inactivated fetal bovine serum and 100 units/mL penicillin-streptomycin) and cultured at 37° C. under 5% CO2.
Cell Treatment, in Cell Western (ICW) for Detection of Mono-Methyl Arginine and DNA Content.
Compound (100 nL) from a 96-well source plate was added directly to 384 well cell plate. Plates were incubated at 37° C., 5% CO2 for 72 hours. After three days of incubation, plates were brought to room temperature outside of the incubator for ten minutes and blotted on paper towels to remove cell media. 50 μL of ice cold 100% methanol was added directly to each well and incubated for 30 min at room temperature. After 30 min, plates were transferred to a Biotek EL406 plate washer and washed 2 times with 100 μL per well of wash buffer (1×PBS). Next 60 μL per well of Odyssey blocking buffer (Odyssey Buffer with 0.1% Tween 20 (v/v)) were added to each plate and incubated 1 hour at room temperature. Blocking buffer was removed and 20 μL per well of primary antibody was added (mono-methyl arginine diluted 1:200 in Odyssey buffer with 0.1% Tween 20 (v/v)) and plates were incubated overnight (16 hours) at 4° C. Plates were washed 5 times with 100 µL per well of wash buffer. Next 20 μL per well of secondary antibody was added (1:200 800CW goat anti-rabbit IgG (H+L) antibody, 1:1000 DRAQ5 (Biostatus limited) in Odyssey buffer with 0.1% Tween 20 (v/v)) and incubated for 1 hour at room temperature. The plates were washed 5 times with 100 μL per well wash buffer then 2 times with 100 μL per well of water. Plates were allowed to dry at room temperature then imaged on the Licor Odyssey machine which measures integrated intensity at 700 nm and 800 nm wavelengths. Both 700 and 800 channels were scanned.
First, the ratio for each well was determined by:
Each plate included fourteen control wells of DMSO only treatment (minimum activation) as well as fourteen control wells for maximum activation treated with 20 μM of a reference compound. The average of the ratio values for each control type was calculated and used to determine the percent activation for each test well in the plate. Reference compound was serially diluted three-fold in DMSO for a total of nine test concentrations, beginning at 20 μM. Percent activation was determined and EC30 curves were generated using triplicate wells per concentration of compound.

[1] = RKO, 72 h, read-out: In Cell Western data (Numerical, μM) EC30
[2] = RKO, 72 h, read-out: In Cell Western data EC30
[3] = RKO cells, 72 hours, mono-methyl arginine, class symbols, Table 3, read-out: In Cell Western data EC30
[4] = RKO cells, 72 hours, mono-methyl arginine, single experiment or average of multiple experiments, Table 3a, read-out: In Cell Western data (Numerical, μM) EC30

T1 sequence (Q99873 with tags, fused parts or gaps): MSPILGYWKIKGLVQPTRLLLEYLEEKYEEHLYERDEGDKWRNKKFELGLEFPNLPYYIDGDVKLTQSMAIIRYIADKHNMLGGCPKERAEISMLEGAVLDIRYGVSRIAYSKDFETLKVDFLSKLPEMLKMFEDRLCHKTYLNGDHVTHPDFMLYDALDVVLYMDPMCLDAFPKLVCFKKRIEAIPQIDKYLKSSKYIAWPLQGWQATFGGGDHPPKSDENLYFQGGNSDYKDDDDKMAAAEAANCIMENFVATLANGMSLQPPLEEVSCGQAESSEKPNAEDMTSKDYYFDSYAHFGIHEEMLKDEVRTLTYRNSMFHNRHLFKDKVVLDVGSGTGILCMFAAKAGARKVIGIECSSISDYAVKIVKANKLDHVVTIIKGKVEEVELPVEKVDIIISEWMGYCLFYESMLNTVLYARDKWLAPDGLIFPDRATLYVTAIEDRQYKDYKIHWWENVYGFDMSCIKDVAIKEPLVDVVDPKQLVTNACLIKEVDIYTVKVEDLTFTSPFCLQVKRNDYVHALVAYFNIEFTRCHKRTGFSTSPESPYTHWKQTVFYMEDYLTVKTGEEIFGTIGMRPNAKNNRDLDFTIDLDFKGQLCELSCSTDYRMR

Structure (SMILES) | IC50 (PRMT1) [µM] | EC30 (RKO cells; [1]) [µM] | EC30 (RKO cells; [2]) [µM] | EC30 (RKO cells; [3]) [µM] | EC30 (RKO cells; [4]) [µM]
CNCCN(C)Cc1c[nH]nc1-c1ccc(OCCCOC)c(C(F)(F)F)c1 [Compound 13] | 0.0108 | 0.567 | < 3 | – | –
CNCCN(C)Cc1c[nH]nc1-c1cc(OCCc2ccccc2OC)cc(C(F)(F)F)c1 [Compound 50] | 0.0138 | – | – | 3.01 to 12 | 4.37
CNCCN(C)Cc1c[nH]nc1-c1cc(OCCOC)c(F)c(C(F)(F)F)c1 [Compound 64] | 0.104 | 13.2 | > 12 | – | –
CC(C)CCc1cc(-c2n[nH]cc2CN(C)CCN)cc(C(F)(F)F)c1 [Compound 63] | 0.0114 | – | – | – | –
CNCCN(C)Cc1c[nH]nc1-c1cc(OCCCOC)c(Cl)c(C(F)(F)F)c1 [Compound 57] | 0.0318 | – | – | – | –
CNCCN(C)Cc1c[nH]nc1-c1cc(CCC(C)C)cc(C(F)(F)F)c1 [Compound 62] | 0.0136 | – | – | – | –
CNCCN(C)Cc1c[nH]nc1-c1cc(C)c(OC2COC2)c(C(F)(F)F)c1 [Compound 66] | 0.00756 | 0.724 | < 3 | – | –
CCCOc1cc(-c2c[nH]nc2CN(C)CCNC)cc(C(F)(F)F)c1 [Compound 31] | 0.17 | – | – | – | –
CN(CCN)Cc1n[nH]cc1-c1ccc(Oc2ccccc2)c(C(F)(F)F)c1 [Compound 26] | 0.00917 | – | – | – | –
CNCCN(C)Cc1c[nH]nc1-c1cc(C)c(OCC2CCC2)c(C(F)(F)F)c1 [Compound 58] | 0.00706 | 0.547 | < 3 | – | –
COCCOc1cc(-c2n[nH]cc2CN(C)CCN)cc(C(F)(F)F)c1Cl [Compound 56] | 0.194 | – | – | – | –
CNCCN(C)Cc1c[nH]nc1-c1cc(OC2CCCCC2)cc(C(F)(F)F)c1 [Compound 39] | 0.0259 | – | – | – | –
CCCOc1ccc(-c2c[nH]nc2CN(C)CCNC)cc1C(F)(F)F [Compound 28] | 0.00659 | – | – | < 3 | 1.1
CNCCN(C)Cc1n[nH]cc1-c1ccc(OCC(C)C)c(C(F)(F)F)c1 [Compound 18] | 0.00988 | – | – | < 3 | 2.69
CNCCN(C)Cc1n[nH]cc1-c1cc(C(O)C(C)C)cc(C(F)(F)F)c1 (centres unmarked) [Compound 32] | > 1 | – | – | – | –
CCCOc1ccc(-c2n[nH]cc2CN(C)CCNC)cc1C(F)(F)F [Compound 11] | 0.00462 | 0.558 | < 3 | – | –
CN(CCN)Cc1c[nH]nc1-c1cc(C(F)(F)F)cc(C(F)(F)F)c1 [Compound 2] | 0.389 | – | – | – | –
CNCCN(C)Cc1n[nH]cc1-c1ccc(OCCCOC)c(C(F)(F)F)c1 [Compound 20] | 0.0553 | – | – | < 3 | 2.04
CC(C)Oc1cc(-c2n[nH]cc2CN(C)CCN)cc(C(F)(F)F)c1 [Compound 6] | 0.0687 | 10.8 | 3.01 to 12 | – | –
CNCCN(C)Cc1c[nH]nc1-c1cc(OCCC(C)C)c(Cl)c(C(F)(F)F)c1 [Compound 54] | 0.146 | – | – | – | –
CNCCN(C)Cc1c[nH]nc1-c1cc(OCC2CCCC2)cc(C(F)(F)F)c1 [Compound 45] | 0.0103 | – | – | – | –
CNCCN(C)Cc1c[nH]nc1-c1cc(OCCCC(=O)OC)cc(C(F)(F)F)c1 [Compound 61] | 0.0165 | – | – | – | –

Structure (SMILES) | IC50 (PRMT1) [µM] | EC30 (RKO cells; [1]) [µM] | EC30 (RKO cells; [2]) [µM] | EC30 (RKO cells; [3]) [µM] | EC30 (RKO cells; [4]) [µM]
CNCCN(C)Cc1c[nH]nc1-c1cc(Cl)c(OC(C)C)c(C(F)(F)F)c1 [Compound 25] | 0.0101 | 0.983 | < 3 | – | –
CNCCN(C)Cc1c[nH]nc1-c1cc(Cl)c(OCC2CC2)c(C(F)(F)F)c1 [Compound 41] | 0.00636 | 2.39 | < 3 | – | –
CNCCN(C)Cc1c[nH]nc1-c1cccc(C(F)(F)F)c1 [Compound 1] | 0.123 | – | – | – | –
CC(C)Oc1ccc(-c2c[nH]nc2CN(C)CCN)cc1C(F)(F)F [Compound 8] | 0.0165 | – | – | < 3 | 2.69
CNCCN(C)Cc1c[nH]nc1-c1cc(Oc2ccncc2)cc(C(F)(F)F)c1 [Compound 38] | 0.138 | – | – | 3.01 to 12 | 8.58
CNCCN(C)Cc1c[nH]nc1-c1cc(Oc2cccnc2)cc(C(F)(F)F)c1 [Compound 51] | 0.0513 | – | – | 3.01 to 12 | 6.9
CNCCN(C)Cc1c[nH]nc1-c1cc(OCCOC)c(Cl)c(C(F)(F)F)c1 [Compound 55] | 0.163 | – | – | – | –
CN(CCN)Cc1c[nH]nc1-c1ccc(Cl)c(C(F)(F)F)c1 [Compound 3] | 0.0232 | – | – | – | –
CN(CCN)Cc1c[nH]nc1-c1ccc(F)c(C(F)(F)F)c1 [Compound 4] | 0.0572 | – | – | – | –
CNCCN(C)Cc1c[nH]nc1-c1cc(OCC(C)C)cc(C(F)(F)F)c1 [Compound 15] | 0.0162 | – | – | – | –
CNCCN(C)Cc1c[nH]nc1-c1cc(OCCCC(F)(F)F)cc(C(F)(F)F)c1 [Compound 48] | 0.0303 | – | – | 3.01 to 12 | 4.2
CNCCN(C)Cc1c[nH]nc1-c1ccc(OCC(C)C)c(C(F)(F)F)c1 [Compound 10] | 0.00451 | 0.537 | < 3 | – | –
CNCCN(C)Cc1n[nH]cc1-c1cc(OCC(C)C)cc(C(F)(F)F)c1 [Compound 29] | 0.0663 | – | – | – | –
CN(CCN)Cc1n[nH]cc1-c1cc(C(F)(F)F)cc(C(F)(F)F)c1 [Compound 7] | 2.6 | – | – | – | –
CNCCN(C)Cc1n[nH]cc1-c1cc(OCCC(C)C)cc(C(F)(F)F)c1 [Compound 22] | 0.0189 | – | – | – | –
CNCCN(C)Cc1n[nH]cc1-c1cc(Cl)c(OC(C)C)c(C(F)(F)F)c1 [Compound 33] | 0.0441 | – | – | – | –
CC(C)CCOc1cc(-c2n[nH]cc2CN(C)CCN)cc(C(F)(F)F)c1Cl [Compound 40] | 0.152 | – | – | – | –
CNCCN(C)Cc1c[nH]nc1-c1cc(OCC(F)(F)F)cc(C(F)(F)F)c1 [Compound 60] | 0.0576 | – | – | – | –
CNCCN(C)Cc1c[nH]nc1-c1ccc(OCCC(C)C)c(C(F)(F)F)c1 [Compound 9] | – | 1.77 | < 3 | – | –
CNCCN(C)Cc1n[nH]cc1-c1cc(OCCCOC)cc(C(F)(F)F)c1 [Compound 27] | 0.139 | – | – | – | –
CNCCN(C)Cc1c[nH]nc1-c1cc(Oc2cncnc2)cc(C(F)(F)F)c1 [Compound 53] | 0.299 | – | – | – | –
CNCCN(C)Cc1c[nH]nc1-c1cc(OCCc2ccccc2)cc(C(F)(F)F)c1 [Compound 42] | – | 2.7 | < 3 | – | –
